Data reported in ChEMBL document CHEMBL1201862, “PubChem BioAssay data set” (2004).
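Step 1: Grow cells in 96-well plates. Step 2: Expose to compound for 48 hours at 5 concentrations. Step 3: Interpolate endpoints linearly; if unreached, use highest concentration. At the GI50, growth is halved.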 Activity calls are given as the source filed them. No stated cut-off is given here; in the data, active = GI50 up to about 1.1 µM and inactive = higher.

How the values were obtained:
Assay in all cases: DTP human tumour cell line panel, 48 h
MOLT-4 = test system: MOLT-4
Hs-578T = test system: Hs-578T
HT-29 = test system: HT-29
NCI/ADR-RES = test system: NCI/ADR-RES
OVCAR-8 = test system: OVCAR-8
NCI-H23 = test system: NCI-H23
MCF7 = test system: MCF7
HOP-62 = test system: HOP-62
HCT-116 = test system: HCT-116
SF-295 = test system: SF-295
U-251 = test system: U-251
K562 = test system: K562
SN12C = test system: SN12C
SK-MEL-2 = test system: SK-MEL-2
UACC-257 = test system: UACC-257
UO-31 = test system: UO-31
CCRF-CEM = test system: CCRF-CEM
HCT-15 = test system: HCT-15
EKVX = test system: EKVX
ACHN = test system: ACHN
CAKI-1 = test system: CAKI-1
UACC-62 = test system: UACC-62
M14 = test system: M14
PC-3 = test system: PC-3
MDA-MB-231 = test system: MDA-MB-231
BT-549 = test system: BT-549
TK-10 = test system: TK-10
OVCAR-5 = test system: OVCAR-5
A498 = test system: A498
DU-145 = test system: DU-145
A549 = test system: A549
SNB-75 = test system: SNB-75
SNB-19 = test system: SNB-19
OVCAR-4 = test system: OVCAR-4
786-0 = test system: 786-0
LOX IMVI = test system: LOX IMVI
SW-620 = test system: SW-620
KM12 = test system: KM12
OVCAR-3 = test system: OVCAR-3
T47D = test system: T47D
MDA-MB-435 = test system: MDA-MB-435
SK-MEL-5 = test system: SK-MEL-5
NCI-H226 = test system: NCI-H226
IGROV-1 = test system: IGROV-1
NCI-H460 = test system: NCI-H460
MDA-N = test system: MDA-N
SF-539 = test system: SF-539
HL-60 = test system: HL-60
NCI-H522 = test system: NCI-H522
RPMI-8226 = test system: RPMI-8226
SK-MEL-28 = test system: SK-MEL-28
COLO 205 = test system: COLO 205
SR = test system: SR
SK-OV-3 = test system: SK-OV-3
SF-268 = test system: SF-268
Malme-3M = test system: Malme-3M
RXF 393 = test system: RXF 393
HCC 2998 = test system: HCC 2998

Nc1ncc2ncn(C3CCC(CO)O3)c2n1 (stereo unspecified)
GI50 (MOLT-4): > 100 µM (inactive) | GI50 (Hs-578T): > 100 µM (inactive) | GI50 (HT-29): > 100 µM (inactive) | GI50 (NCI/ADR-RES): > 100 µM (inactive) | GI50 (OVCAR-8): > 100 µM (inactive) | GI50 (NCI-H23): > 100 µM (inactive) | GI50 (MCF7): > 100 µM (inactive) | GI50 (HOP-62): > 100 µM (inactive) | GI50 (HCT-116): > 100 µM (inactive) | GI50 (SF-295): > 100 µM (inactive) | GI50 (U-251): > 100 µM (inactive) | GI50 (K562): > 100 µM (inactive) | GI50 (SN12C): > 100 µM (inactive) | GI50 (SK-MEL-2): > 100 µM (inactive) | GI50 (UACC-257): > 100 µM (inactive) | GI50 (UO-31): > 100 µM (inactive) | GI50 (CCRF-CEM): > 100 µM (inactive) | GI50 (HCT-15): > 100 µM | GI50 (EKVX): > 100 µM (inactive) | GI50 (ACHN): > 100 µM (inactive) | GI50 (CAKI-1): > 100 µM (inactive) | GI50 (UACC-62): > 100 µM (inactive) | GI50 (M14): > 100 µM (inactive) | GI50 (PC-3): > 100 µM (inactive) | GI50 (MDA-MB-231): > 100 µM (inactive) | GI50 (BT-549): > 100 µM (inactive) | GI50 (TK-10): > 100 µM (inactive) | GI50 (OVCAR-5): > 100 µM (inactive) | GI50 (A498): 88.7 µM (inactive) | GI50 (DU-145): > 100 µM (inactive) | GI50 (A549): > 100 µM (inactive) | GI50 (SNB-75): > 100 µM (inactive) | GI50 (SNB-19): > 100 µM (inactive) | GI50 (OVCAR-4): > 100 µM (inactive) | GI50 (786-0): > 100 µM (inactive) | GI50 (LOX IMVI): > 100 µM (inactive) | GI50 (SW-620): > 100 µM (inactive) | GI50 (KM12): > 100 µM (inactive) | GI50 (OVCAR-3): > 100 µM (inactive) | GI50 (T47D): > 100 µM (inactive) | GI50 (MDA-MB-435): > 100 µM (inactive) | GI50 (SK-MEL-5): > 100 µM (inactive) | GI50 (NCI-H226): > 100 µM (inactive) | GI50 (IGROV-1): > 100 µM (inactive) | GI50 (NCI-H460): > 100 µM (inactive) | GI50 (MDA-N): > 100 µM (inactive) | GI50 (SF-539): > 100 µM (inactive) | GI50 (HL-60): > 100 µM (inactive) | GI50 (NCI-H522): > 100 µM (inactive) | GI50 (RPMI-8226): > 100 µM (inactive) | GI50 (SK-MEL-28): > 100 µM (inactive) | GI50 (COLO 205): > 100 µM (inactive) | GI50 (SR): > 100 µM (inactive) | GI50 (SK-OV-3): > 100 µM (inactive) | GI50 (SF-268): > 100 µM (inactive)

CCc1ccc2c(c1)/C(=C1/Nc3ccccc3/C1=N/O)C(=O)N2
GI50 (MOLT-4): 4.3 µM (inactive) | GI50 (Hs-578T): 4.57 µM (inactive) | GI50 (HT-29): 4.71 µM (inactive) | GI50 (NCI/ADR-RES): 6.84 µM (inactive) | GI50 (OVCAR-8): 6.55 µM (inactive) | GI50 (NCI-H23): 5.18 µM (inactive) | GI50 (MCF7): 1.66 µM (inactive) | GI50 (HOP-62): 10.6 µM (inactive) | GI50 (HCT-116): 3.27 µM (inactive) | GI50 (Malme-3M): 3.72 µM (inactive) | GI50 (SF-295): 6.25 µM (inactive) | GI50 (U-251): 9.31 µM (inactive) | GI50 (K562): 4.5 µM (inactive) | GI50 (SN12C): 5.61 µM (inactive) | GI50 (SK-MEL-2): 4.38 µM (inactive) | GI50 (UACC-257): 15.2 µM (inactive) | GI50 (UO-31): 4.12 µM (inactive) | GI50 (CCRF-CEM): 3.21 µM (inactive) | GI50 (HCT-15): 3.53 µM | GI50 (EKVX): 5.19 µM (inactive) | GI50 (ACHN): 3.84 µM (inactive) | GI50 (CAKI-1): 2.24 µM (inactive) | GI50 (UACC-62): 11 µM (inactive) | GI50 (M14): 12.6 µM (inactive) | GI50 (PC-3): 6.85 µM (inactive) | GI50 (MDA-MB-231): 20 µM (inactive) | GI50 (BT-549): 8 µM (inactive) | GI50 (TK-10): 11.5 µM (inactive) | GI50 (OVCAR-5): 18.6 µM (inactive) | GI50 (A498): 4.03 µM (inactive) | GI50 (DU-145): 6.49 µM (inactive) | GI50 (A549): 6.37 µM (inactive) | GI50 (RXF 393): 2.81 µM (inactive) | GI50 (SNB-75): 11.8 µM (inactive) | GI50 (SNB-19): 14.7 µM (inactive) | GI50 (OVCAR-4): 6.67 µM (inactive) | GI50 (786-0): 6.61 µM (inactive) | GI50 (LOX IMVI): 6.76 µM (inactive) | GI50 (SW-620): 4.53 µM (inactive) | GI50 (KM12): 0.117 µM (active) | GI50 (OVCAR-3): 3.4 µM (inactive) | GI50 (T47D): 6.28 µM (inactive) | GI50 (MDA-MB-435): 7.55 µM (inactive) | GI50 (SK-MEL-5): 3.7 µM (inactive) | GI50 (NCI-H226): 12 µM (inactive) | GI50 (IGROV-1): 5.08 µM (inactive) | GI50 (NCI-H460): 5.11 µM (inactive) | GI50 (MDA-N): 7.53 µM (inactive) | GI50 (NCI-H522): 3.43 µM (inactive) | GI50 (HCC 2998): 3.3 µM (inactive) | GI50 (RPMI-8226): 5.15 µM (inactive) | GI50 (SK-MEL-28): 12.9 µM (inactive) | GI50 (COLO 205): 8.83 µM (inactive) | GI50 (SR): 3.29 µM (inactive) | GI50 (SK-OV-3): 2.44 µM (inactive) | GI50 (SF-268): 8.22 µM (inactive)
